The subject of assay [1] is rat model of STZ-induced diabetes. Description: Cataract by lens opacity (slit-lamp biomicroscope) in rat model of STZ-induced diabetes. The class given is in vivo, Sprague Dawley rats. The settings on record: 7 weeks. The procedure: (§1) Eight to ten-week old male Sprague Dawley rats were used in the model. Rat handling was performed according to guidelines of the National Institute of Health (NIH) and the Association for Assessment and Accreditation of Laboratory Animal Care (AAALAC). Diabetes was induced by intraperitoneal injection of 50 mg/kilogram (mg/kg) STZ (in 0.1 molar citrate buffer), which is a dose generally sufficient to destroy all insulin-producing beta cells and induce a diabetic disease-like state. Two weeks later, glucose levels were measured and rats displaying a level lower than 200 mg per deciliter (dL) were excluded from the study. The remaining rats were randomly divided into 3 groups (according to body weight and serum glucose levels): a control group, a corrole group and an LPA group. Each group received a 7-week course of treatment. The control group (13 rats) received water with no active ingredient. The corrole group (14 rats) received 20 mg/kg/day of the corrole designated 1-Fe. 1-Fe was synthesized using the procedure described in Mahammed et al. (Mahammed, Goldberg, & Gross, 2001). […]
Cataract was evaluated a day before termination of the trial in live rats by measurement of opacities of the rat's lenses of each eye with a slit-lamp biomicroscope following the application of tropicamide eye drops. […]
A rat having a score in at least one eye of 1 or higher was considered to have developed a cataract. The percentage of rats in each group having a cataract (cataract incidence) as determined by opacity measurements for each group is shown in FIG. 1A. […]
The degree of cataract for both eyes as determined by averaging each group's cataract scoring of both eyes of each rat as determined by opacity measurement is shown in FIG. 1B.
As cataract may develop at a different rate in each of the animals' eyes, the degree of cataract for the rats' worse eye was evaluated. The degree of cataract for the rats' worse eye was determined by averaging each group's cataract scoring of each animal's worse eye as determined by opacity measurement, and is shown in FIG. 1C. […]

Assay [2] has the same test system. Description: Cataractous damage by histological examination (H&E) of lenses in rat model of STZ-induced diabetes. The class given is in vivo, Sprague Dawley rats. The settings on record: 7 weeks. The procedure: as §1, with “treatment.” for “treatment. The control group (13 rats) received water with no active ingredient. The corrole group (14 rats) received 20 mg/kg/day of the corrole designated 1-Fe. 1-Fe was synthesized using the procedure described in Mahammed et al. (Mahammed, Goldberg, & Gross, 2001).”
The development of cataractous damage was further evaluated by histological examination. […]
A rat having a score in at least one eye of 1 or higher was considered to have suffered a cataractous damage. The percentage of rats in each group having a cataractous damage (cataract damage incidence) as determined by histological examination of lenses for each group is shown in FIG. 1D.
The degree of cataractous damage for both eyes as determined by averaging each group's cataract scoring of both eyes of each rat as determined by histological examination is shown in FIG. 1E. […]

A short description of assay [3]: Body weight in rat model of STZ-induced diabetes. The settings on record: STZ-diabetic rats, 7-week treatment. It counts as in vivo, Sprague Dawley rats. The procedure:
as §1, with “2001). The LPA group (13 rats) received 50 mg/kg/day LPA. LPA was formulated for administration by dissolving in 1 millimolar sodium hydroxide (NaOH) which was then brought to a pH of 7.5.” for “2001).”

Assay [4] deals with rat model of STZ-induced diabetes. Description: Creatinine clearance rate (CrCl), kidney damage in rat model of STZ-induced diabetes. It counts as in vivo. The settings on record: after 7 weeks of treatment. The procedure:
as §1, with “treatment.” for “treatment. The control group (13 rats) received water with no active ingredient. The corrole group (14 rats) received 20 mg/kg/day of the corrole designated 1-Fe. 1-Fe was synthesized using the procedure described in Mahammed et al. (Mahammed, Goldberg, & Gross, 2001).”
A rat model was performed as in example 1, but rather than testing for eye damage, blood testing was used to test for creatinine levels. […] Creatinine clearance rate (CrCl), an established measure for evaluating renal function, was calculated for rats in all groups of the trial by dividing the amount of creatinine in the urine (mg/minute) by its concentration in the serum (mg/ml).
CrCl was measured: a) before induction of diabetes; b) 2 weeks later when the treatment commenced; and c) following 7 weeks of treatment (9 weeks from STZ injection).

In the next assay the test system is development of cataract. The conditions noted are these: clinical studies, reported in the literature; cited from earlier work.
For a further assay, the system named is DN in a rat model. The settings on record: administered in levels sufficient to be present in the kidney; cited from earlier work.

As to `O=C(O)CCCCC1CCSS1` (stereo not drawn) [LPA, alpha lipoic acid], in assay [1] (1-Fe 20 mg/kg/day (p=0.014), LPA 50 mg/kg/day (p=0.1)), the “Reduction in degree of cataract, both eyes (opacity score 0-4), relative to control group” value is on record as 28%. The “Degree of cataract in worse eye relative to control group (in words)” value in assay [1] (LPA 50 mg/kg/day) was “not significantly reduced”. Further, in assay [1] (relative to control group, LPA 50 mg/kg/day), the “Effect on cataract incidence (opacity measurement)” value is recorded as “did not have a significant effect”. Besides, in assay [2] (1-Fe 20 mg/kg/day, LPA 50 mg/kg/day), the “Reduction in degree of cataractous damage, both eyes (histology score 0-4), relative to control group” value was determined as 32%. The “Cataract damage incidence by histological examination, relative to control group” value in assay [2] (corrole p=0.073) is listed as “minimal”. Besides, in assay [3], the “Body weight change during the treatment phase” value is “significant weight loss”. For the same compound, the CrCl in assay [4] (STZ-diabetic rats, 1-Fe 20 mg/kg/day, LPA 50 mg/kg/day) is 1.36 mL/min. Besides, in assay [4] (1-Fe p=0.027, LPA p=0.078), the “Increase in creatinine clearance relative to the control group” value is 89%.

Take `CC1=C(/C=C/C(C)=C/C=C/C(C)=C/C=C/C=C(C)/C=C/C=C(C)/C=C/C2=C(C)CCCC2(C)C)C(C)(C)CCC1` [beta-carotene]: the “Effect on the development of cataract” value with development of cataract is listed as “no significant effect”.

As to `COc1cc(/C=C/C(=O)CC(=O)/C=C/c2ccc(O)c(OC)c2)ccc1O` [curcumin], the “Treating DN in a rat model” value with DN in a rat model is “not successful”.

For the compound `O=C1O[C@H]([C@@H](O)CO)C(O)=C1O` [vitamin C], the “Effect on the development of cataract” value with development of cataract was “no significant effect”.

In the case of vitamin E, the “Effect on the development of cataract” value in the assay on development of cataract is “no significant effect”.

The values above are taken from patent US9572816B2, “Method of treatment of disease” (TECHNION RESEARCH AND DEVELOPMENT FOUNDATION LTD., priority 2012, dated 2017).
